# pIC50: −log10 of the molar value.
# Tested on: S. typhi GFP reporter counter-screen, fluorescence, 4 h
# Experiment: S. typhi counter-screen signal inhibition – fluorescence, 4 h, counter-screen for PhoP regulon inhibitor project, dose response (AID 2384)
row,Compound,pIC50
1,Cc1ccc(C(=O)NCCN2C3=NC[C@@H](Cc4ccccc4)N3C[C@H]2Cc2ccc(O)cc2)cc1Br,4.45
2,CO[C@H]1/C=C/O[C@@]2(C)Oc3c(C)c(O)c4c(O)c(c(C=NN5CCN(C)CC5)c(O)c4c3C2=O)NC(=O)/C(C)=C\C=C\[C@H](C)[C@H](O)[C@@H](C)[C@@H](O)[C@@H](C)[C@H](OC(C)=O)[C@@H]1C,5.05
3,CCCCOc1ccc(C(=O)NNC(=S)NC(=O)CC)cc1,4.47
4,c1ccc(Sc2cccc3ccccc23)c(CNC2=NCCN2)c1,4.40
5,CC(=O)Nc1cccc(NC(=O)Nc2ccc(F)cc2F)c1,3.85
6,CC(NCC(O)COc1ccc2ccccc2c1)c1ccccc1 (configuration not stated),4.23
7,COc1ccc(CNCC(O)COc2ccc(C)cc2[N+](=O)[O-])cc1 (configuration not stated),3.89
8,O=C(Oc1c(Br)cc([N+](=O)[O-])cc1Br)c1cccnc1,4.55
9,O=C(C[n+]1cnn(CC(=O)c2ccc(Cl)cc2Cl)c1)c1ccc([N+](=O)[O-])cc1,4.44
10,O=C(N/N=C/c1ccc(N2CCCC2)c([N+](=O)[O-])c1)c1cccnc1,3.98
11,CN(C)CCCOC(=O)c1sc2ccccc2c1Cl,4.16
12,CCc1ccc2c(c1)C1(NN=C(c3ccc(C)cc3)S1)C(=O)N2 (configuration not stated),4.41
13,Cc1cc(C2N=C(N)Nc3nc4ccccc4n32)c(C)n1-c1ccccc1Cl (configuration not stated),4.48
14,COc1ccc(CNc2ncnc3c2[nH]c2ccccc23)cc1,3.83
15,CS(=O)(=O)c1ccc([C@@H](O)[C@@H](CO)NC(=O)C(Cl)Cl)cc1,4.74
16,CN(C)CCCNC(=S)NCC(c1ccc(Cl)cc1Cl)c1c[nH]c2ccccc12 (configuration not stated),4.58
17,COc1ccc(/C=C/c2cc[n+](C(=O)Cc3ccccc3)cc2)cc1,4.19
18,CCc1ccc(-c2nn(-c3ccccc3)cc2CSC(=N)N)cc1,4.71
19,CNCCCCOc1ccc(C(C)(C)C)cc1Cl,4.24
20,CCCOc1ccc(C2=CSC3=NCCN23)cc1Cl,4.12
21,CCCCn1c(=N)n(CC(=O)c2ccc(Br)s2)c2ccccc21,4.35
22,CCCCOc1ccc(CSC(=N)N)cc1Cl,4.72
23,O=[N+]([O-])c1ccc(N2CCNCC2)cc1NCc1cccnc1,4.13
24,COc1cccc(/C=N/NC(=O)c2ccoc2C)c1O,3.86

row,Compound,pIC50
1,c1ccc(-c2nc3ccccc3[nH]2)cc1,4.03
2,CC(/C=N/Nc1nc2ccccc2[nH]1)=C\c1ccccc1,4.11
3,Cc1cc2oc(=O)cc(CN3CCN(C/C=C/c4ccccc4)CC3)c2cc1O,4.03
4,O=C(/C=C/c1ccccc1Cl)Nc1cccc(O)c1,4.30
5,Cc1ccc(-c2c[n+](Cc3ccc(Cl)cc3)c3n2CCC3)cc1,4.34
6,Fc1ccc(Nc2nnc(C(F)(F)F)s2)cc1Cl,4.42
7,O=c1[nH]cc(N=Cc2cc([N+](=O)[O-])ccc2O)c(=O)[nH]1,4.11
8,Clc1ccc(C(c2ccccc2)N2CCNCC2)cc1 (configuration not stated),4.01
9,CCCc1nnc(NC(=O)c2cn(CC)c3cc(N4CCN(C)CC4)c(F)cc3c2=O)s1,4.21
10,COc1ccc(CNCCc2cccc(F)c2)c2ccccc12,4.21
11,O=C(c1cccs1)c1no[n+]([O-])c1C(=O)c1cccs1,4.40
12,O=C1C=C(Nc2ccccc2O)c2ccccc2C1=O,4.00
13,Nc1ncncc1-c1ccc([N+](=O)[O-])cc1,4.36
14,CN(C)c1ccc2nc3ccc(=[N+](C)C)cc-3sc2c1,4.34
15,Cc1ncc(CC(=O)n2cc(C(=O)c3cc(Cl)ccc3O)cn2)s1,4.08
16,CCN(CCNCC(O)COc1ccccc1C(C)C)c1cccc(C)c1 (configuration not stated),4.42
17,COc1cc(/C=N/N=C(N)N)ccc1OCc1ccc(Cl)cc1,4.33
18,NS(=O)(=O)OCCCc1ccc(C(F)(F)F)cc1,3.84
19,OC1CNCc2cc3c(cc21)OCCO3 (configuration not stated),4.21
20,CCCCCCCCNC(C)C(O)c1ccc(SC(C)C)cc1 (configuration not stated),4.51
21,CCCCCCCNC(=O)C1(CC2CC(c3ccc(Cl)cc3)=NO2)CCNCC1 (configuration not stated),4.62
22,O=C(Nc1nnc(C(F)(F)F)s1)c1ccc(Br)s1,3.86
23,O=C(Nc1cccc(Cl)c1)Nc1nccs1,4.24

# From PubChem BioAssay AID2384 (Southern Research Specialized Biocontainment Screening …, 2010)
